Experimental data taken from patent US11306101B2 (Celgene Corporation, priority 2019, dated 2022).

Target: T1, CK1α (Homo sapiens, UniProt P48729+Q96SW2)
T1 construct: expressed in transfected cells
Experiment: CK1α ePL degradation assay in MDS-L cells
Format: cell-based
Conditions: MDS-L cells expressing ePL-tagged CK1α; for DC50: concentration giving 50% CK1α degradation vs DMSO control; for Y: lowest measured CK1α level normalized to DMSO control
Experimental: The following is an example of an assay that can be used to determine the CK1α degradation activity of Isoindolinone Carboxamide Compounds in a cell line, for example, the MDS-L cell line.
Compounds were dispensed by an acoustic dispenser (ATS acoustic transfer system from EDC Biosystems) into a 384-well in a 10 point dose-response curve using 3-fold dilutions starting at 10 μM and going down to 0.0005 μM in DMSO. […] Assay plates were incubated at 37° C. with 5% CO2 for the indicated times. At the different time points, 25 μL of the InCELL Hunter™ Detection Reagent Working Solution (catalog number 96-0002, DiscoverX, Fremont, Calif.) was added to each well and incubated at RT for 30 min protected from light. After 30 min, luminescence was read on a PHERAstar luminometer (BMG LABTECH, Cary, N.C.).
CK1α levels in compound-treated wells were normalized to that of DMSO control and expressed as percent of control (PoC) (y).
The lowest measured CK1α level normalized to DMSO control in response to compound treatment, termed Y value, was used to characterize the compound-mediated CK1α degradation efficiency.

T1 sequence (P48729 whole entry): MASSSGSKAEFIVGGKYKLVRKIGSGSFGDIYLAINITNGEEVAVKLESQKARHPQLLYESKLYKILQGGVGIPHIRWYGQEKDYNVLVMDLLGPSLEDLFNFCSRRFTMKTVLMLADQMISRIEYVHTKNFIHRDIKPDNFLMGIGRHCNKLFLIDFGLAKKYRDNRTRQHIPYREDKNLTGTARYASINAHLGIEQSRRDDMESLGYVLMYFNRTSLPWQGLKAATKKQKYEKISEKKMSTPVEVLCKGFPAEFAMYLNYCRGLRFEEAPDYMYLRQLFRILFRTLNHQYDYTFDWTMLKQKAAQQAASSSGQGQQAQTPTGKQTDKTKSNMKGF
T1 sequence (Q96SW2 whole entry): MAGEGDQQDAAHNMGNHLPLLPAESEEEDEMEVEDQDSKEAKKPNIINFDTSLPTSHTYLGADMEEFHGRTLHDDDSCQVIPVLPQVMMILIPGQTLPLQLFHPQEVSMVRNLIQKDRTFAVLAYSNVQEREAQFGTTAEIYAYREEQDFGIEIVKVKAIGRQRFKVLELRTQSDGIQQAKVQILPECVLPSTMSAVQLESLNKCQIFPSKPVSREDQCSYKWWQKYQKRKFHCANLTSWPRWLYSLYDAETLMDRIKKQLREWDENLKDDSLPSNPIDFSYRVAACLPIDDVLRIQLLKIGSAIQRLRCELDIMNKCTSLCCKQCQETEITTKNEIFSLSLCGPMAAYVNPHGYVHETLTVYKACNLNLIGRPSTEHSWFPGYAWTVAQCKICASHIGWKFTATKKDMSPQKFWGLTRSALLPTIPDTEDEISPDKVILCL
T1 sequence (Q16531 whole entry partner): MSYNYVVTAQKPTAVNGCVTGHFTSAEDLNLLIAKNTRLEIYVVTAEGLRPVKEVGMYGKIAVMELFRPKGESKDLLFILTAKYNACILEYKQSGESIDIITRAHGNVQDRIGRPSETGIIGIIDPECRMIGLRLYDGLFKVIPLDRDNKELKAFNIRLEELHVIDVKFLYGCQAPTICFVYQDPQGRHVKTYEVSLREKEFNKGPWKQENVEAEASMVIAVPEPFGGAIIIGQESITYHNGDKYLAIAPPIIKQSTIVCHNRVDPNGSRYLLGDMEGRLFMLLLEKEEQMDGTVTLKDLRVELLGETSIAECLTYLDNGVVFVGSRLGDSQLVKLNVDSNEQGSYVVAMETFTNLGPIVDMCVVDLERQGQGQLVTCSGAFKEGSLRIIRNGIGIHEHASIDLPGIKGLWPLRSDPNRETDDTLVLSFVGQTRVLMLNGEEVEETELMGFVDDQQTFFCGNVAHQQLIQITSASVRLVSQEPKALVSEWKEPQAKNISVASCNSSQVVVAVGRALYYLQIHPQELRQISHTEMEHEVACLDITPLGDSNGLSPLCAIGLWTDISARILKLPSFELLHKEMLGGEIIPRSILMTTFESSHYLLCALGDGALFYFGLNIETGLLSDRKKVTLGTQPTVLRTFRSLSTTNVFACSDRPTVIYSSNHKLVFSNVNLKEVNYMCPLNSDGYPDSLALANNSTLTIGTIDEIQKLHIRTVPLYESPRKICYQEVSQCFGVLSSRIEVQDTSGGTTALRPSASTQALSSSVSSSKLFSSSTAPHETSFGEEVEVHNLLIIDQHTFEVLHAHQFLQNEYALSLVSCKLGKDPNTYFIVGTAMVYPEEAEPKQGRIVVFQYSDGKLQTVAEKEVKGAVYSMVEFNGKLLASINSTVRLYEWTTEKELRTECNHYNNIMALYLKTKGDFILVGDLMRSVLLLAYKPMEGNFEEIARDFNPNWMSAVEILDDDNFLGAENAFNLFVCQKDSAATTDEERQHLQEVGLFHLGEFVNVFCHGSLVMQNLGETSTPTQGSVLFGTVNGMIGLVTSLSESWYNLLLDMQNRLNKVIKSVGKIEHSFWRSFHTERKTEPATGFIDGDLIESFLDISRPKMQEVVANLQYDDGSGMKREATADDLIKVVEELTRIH

Structure (SMILES)	DC50 [nM]	Y
CC(C)NC(=O)c1ccc2c(c1)CN(C1CCC(=O)NC1=O)C2=O (centres unmarked) [Example 2]	100 to 500	** (a Y value (shown as**) of 20%<Y≤35%)
CC[C@H](NC(=O)c1ccc2c(c1)CN(C1CCC(=O)NC1=O)C2=O)c1ccccc1 (some centres unmarked) [Example 6]	< 100	* (a Y value (shown as *) of 0<Y≤20%)
Cc1ccc([C@H](C)NC(=O)c2ccc3c(c2)CN(C2CCC(=O)NC2=O)C3=O)cc1 (some centres unmarked) [Example 7]	< 100	* (a Y value (shown as *) of 0<Y≤20%)
C[C@H](NC(=O)c1ccc2c(c1)CN(C1CCC(=O)NC1=O)C2=O)c1ccc(Cl)cc1 (some centres unmarked) [Example 8]	< 100	* (a Y value (shown as *) of 0<Y≤20%)
C[C@H](NC(=O)c1ccc2c(c1)CN(C1CCC(=O)NC1=O)C2=O)C1CCC1 (some centres unmarked) [Example 9]	< 100	** (a Y value (shown as**) of 20%<Y≤35%)
COc1ccc([C@H](C)NC(=O)c2ccc3c(c2)CN(C2CCC(=O)NC2=O)C3=O)cc1 (some centres unmarked) [Example 12]	< 100	** (a Y value (shown as**) of 20%<Y≤35%)
C[C@H](NC(=O)c1ccc2c(c1)CN(C1CCC(=O)NC1=O)C2=O)c1cccc(Cl)c1 (some centres unmarked) [Example 15]	< 100	* (a Y value (shown as *) of 0<Y≤20%)
C[C@H](NC(=O)c1ccc2c(c1)CN(C1CCC(=O)NC1=O)C2=O)c1ccc(F)cc1 (some centres unmarked) [Example 16]	< 100	** (a Y value (shown as**) of 20%<Y≤35%)
O=C1CCC(N2Cc3cc(C(=O)N[C@H](C4CCCCC4)C(F)(F)F)ccc3C2=O)C(=O)N1 (some centres unmarked) [Example 23]	< 100	* (a Y value (shown as *) of 0<Y≤20%)
C[C@H](NC(=O)c1ccc2c(c1)CN(C1CCC(=O)NC1=O)C2=O)C(C)(C)C (some centres unmarked) [Example 30]	500 to 1000	** (a Y value (shown as**) of 20%<Y≤35%)
COc1cccc([C@@H](NC(=O)c2ccc3c(c2)CN(C2CCC(=O)NC2=O)C3=O)C(F)(F)F)c1 (some centres unmarked) [Example 33]	< 100	* (a Y value (shown as *) of 0<Y≤20%)
O=C1CCC(N2Cc3cc(C(=O)N[C@H](C4CCOCC4)C(F)(F)F)ccc3C2=O)C(=O)N1 (stereo partly drawn) [Example 36, 2-(2,6-dioxopiperidin-3-yl)-1-oxo-N-((R)-2,2,2-trifluoro-1-(tetrahydro-2H-pyran-4-yl)ethyl)isoindoline-5-carboxamide]	100 to 500	** (a Y value (shown as**) of 20%<Y≤35%)
COc1ccccc1[C@@H](NC(=O)c1ccc2c(c1)CN(C1CCC(=O)NC1=O)C2=O)C(F)(F)F (stereo partly drawn) [Example 38, 2-(2,6-dioxopiperidin-3-yl)-1-oxo-N-((R)-2,2,2-trifluoro-1-(2-methoxyphenyl)ethyl)isoindoline-5-carboxamide]	< 100	* (a Y value (shown as *) of 0<Y≤20%)
O=C1CCC(N2Cc3cc(C(=O)N[C@H](c4ccncc4)C(F)(F)F)ccc3C2=O)C(=O)N1 (stereo partly drawn) [Example 39, 2-(2,6-dioxopiperidin-3-yl)-1-oxo-N-((R)-2,2,2-trifluoro-1-(pyridin-4-yl)ethyl)isoindoline-5-carboxamide]	500 to 1000	*** (a Y value (shown as***) of 35%<Y<50%)
O=C1CCC(N2Cc3cc(C(=O)N[C@H](c4ccc(OC(F)(F)F)cc4)C(F)(F)F)ccc3C2=O)C(=O)N1 (stereo partly drawn) [Example 41, 2-(2,6-dioxopiperidin-3-yl)-1-oxo-N-((R)-2,2,2-trifluoro-1-(4-(trifluoromethoxy)phenyl)ethyl)isoindoline-5-carboxamide]	100 to 500	* (a Y value (shown as *) of 0<Y≤20%)
O=C1CCC(N2Cc3cc(C(=O)N[C@H](c4ccc(Cl)cc4)C(F)(F)F)ccc3C2=O)C(=O)N1 (stereo partly drawn) [Example 42, N-((R)-1-(4-chlorophenyl)-2,2,2-trifluoroethyl)-2-(2,6-dioxopiperidin-3-yl)-1-oxoisoindoline-5-carboxamide]	< 100	* (a Y value (shown as *) of 0<Y≤20%)
O=C1CCC(N2Cc3cc(C(=O)N[C@H](c4cccc(Cl)c4)C(F)(F)F)ccc3C2=O)C(=O)N1 (stereo partly drawn) [Example 43, N-((R)-1-(3-chlorophenyl)-2,2,2-trifluoroethyl)-2-(2,6-dioxopiperidin-3-yl)-1-oxoisoindoline-5-carboxamide]	< 100	* (a Y value (shown as *) of 0<Y≤20%)
O=C1CCC(N2Cc3cc(C(=O)N[C@H](c4ccccn4)C(F)(F)F)ccc3C2=O)C(=O)N1 (stereo partly drawn) [Example 48, 2-(2,6-dioxopiperidin-3-yl)-1-oxo-N-((R)-2,2,2-trifluoro-1-(pyridin-2-yl)ethyl)isoindoline-5-carboxamide]	100 to 500	** (a Y value (shown as**) of 20%<Y≤35%)

The remaining lines, values ahead:

DC50 [nM]	Y	Structure (SMILES)
< 100	* (a Y value (shown as *) of 0<Y≤20%)	C[C@H](NC(=O)c1ccc2c(c1)CN(C1CCC(=O)NC1=O)C2=O)c1ccccc1 (stereo partly drawn) [Example 1, 2-(2,6-Dioxopiperidin-3-yl)-1-oxo-N—((S)-1-phenylethyl)isoindoline-5-carboxamide]
< 100	* (a Y value (shown as *) of 0<Y≤20%)	C[C@H](NC(=O)c1ccc2c(c1)CN(C1CCC(=O)NC1=O)C2=O)C1CCCC1 (some centres unmarked) [Example 3]
< 100	* (a Y value (shown as *) of 0<Y≤20%)	C[C@@H](NC(=O)c1ccc2c(c1)CN(C1CCC(=O)NC1=O)C2=O)C1CCCCC1 (some centres unmarked) [Example 4]
100 to 500	** (a Y value (shown as**) of 20%<Y≤35%)	C[C@H](NC(=O)c1ccc2c(c1)CN(C1CCC(=O)NC1=O)C2=O)C1CC1 (some centres unmarked) [Example 5]
100 to 500	** (a Y value (shown as**) of 20%<Y≤35%)	C[C@H](NC(=O)c1ccc2c(c1)CN(C1CCC(=O)NC1=O)C2=O)c1ccccn1 (some centres unmarked) [Example 10]
100 to 500	** (a Y value (shown as**) of 20%<Y≤35%)	C[C@H](NC(=O)c1ccc2c(c1)CN(C1CCC(=O)NC1=O)C2=O)c1cccc(C#N)c1 (some centres unmarked) [Example 11]
100 to 500	** (a Y value (shown as**) of 20%<Y≤35%)	C[C@H](NC(=O)c1ccc2c(c1)CN(C1CCC(=O)NC1=O)C2=O)c1cccnc1 (some centres unmarked) [Example 19]
100 to 500	** (a Y value (shown as**) of 20%<Y≤35%)	CC(C)[C@H](C)NC(=O)c1ccc2c(c1)CN(C1CCC(=O)NC1=O)C2=O (some centres unmarked) [Example 28]
100 to 500	** (a Y value (shown as**) of 20%<Y≤35%)	CC(C)(C)[C@@H](NC(=O)c1ccc2c(c1)CN(C1CCC(=O)NC1=O)C2=O)C(F)(F)F (stereo partly drawn) [Example 34, 2-(2,6-dioxopiperidin-3-yl)-1-oxo-N-((R)-1,1,1-trifluoro-3,3-dimethylbutan-2-yl)isoindoline-5-carboxamide]
< 100	* (a Y value (shown as *) of 0<Y≤20%)	COc1ccc([C@@H](NC(=O)c2ccc3c(c2)CN(C2CCC(=O)NC2=O)C3=O)C(F)(F)F)cc1 (stereo partly drawn) [Example 35, 2-(2,6-dioxopiperidin-3-yl)-1-oxo-N-((R)-2,2,2-trifluoro-1-(4-methoxyphenyl)ethyl)isoindoline-5-carboxamide]
< 100	** (a Y value (shown as**) of 20%<Y≤35%)	O=C1CCC(N2Cc3cc(C(=O)N[C@H](c4cccc(F)c4)C(F)(F)F)ccc3C2=O)C(=O)N1 (stereo partly drawn) [Example 37, 2-(2,6-dioxopiperidin-3-yl)-1-oxo-N-((R)-2,2,2-trifluoro-1-(3-fluorophenyl)ethyl)isoindoline-5-carboxamide]
< 100	* (a Y value (shown as *) of 0<Y≤20%)	O=C1CCC(N2Cc3cc(C(=O)N[C@H](c4ccc(C(F)(F)F)cc4)C(F)(F)F)ccc3C2=O)C(=O)N1 (stereo partly drawn) [Example 40, 2-(2,6-dioxopiperidin-3-yl)-1-oxo-N-((R)-2,2,2-trifluoro-1-(4-(trifluoromethyl)phenyl)ethyl)isoindoline-5-carboxamide]
< 100	* (a Y value (shown as *) of 0<Y≤20%)	O=C1CCC(N2Cc3cc(C(=O)N[C@H](c4ccccc4OC(F)(F)F)C(F)(F)F)ccc3C2=O)C(=O)N1 (stereo partly drawn) [Example 44, 2-(2,6-dioxopiperidin-3-yl)-1-oxo-N-((R)-2,2,2-trifluoro-1-(2-(trifluoromethoxy)phenyl)ethyl)isoindoline-5-carboxamide]
100 to 500	* (a Y value (shown as *) of 0<Y≤20%)	O=C1CCC(N2Cc3cc(C(=O)N[C@H](C4CCC(F)(F)CC4)C(F)(F)F)ccc3C2=O)C(=O)N1 (stereo partly drawn) [Example 45, N-((R)-1-(4,4-difluorocyclohexyl)-2,2,2-trifluoroethyl)-2-(2,6-dioxopiperidin-3-yl)-1-oxoisoindoline-5-carboxamide]
100 to 500	* (a Y value (shown as *) of 0<Y≤20%)	CC1(C)CCC([C@@H](NC(=O)c2ccc3c(c2)CN(C2CCC(=O)NC2=O)C3=O)C(F)(F)F)CC1 (stereo partly drawn) [Example 46, N-((R)-1-(4,4-dimethylcyclohexyl)-2,2,2-trifluoroethyl)-2-(2,6-dioxopiperidin-3-yl)-1-oxoisoindoline-5-carboxamide]
< 100	* (a Y value (shown as *) of 0<Y≤20%)	O=C1CCC(N2Cc3cc(C(=O)N[C@H](c4ccccc4C(F)(F)F)C(F)(F)F)ccc3C2=O)C(=O)N1 (stereo partly drawn) [Example 47, 2-(2,6-dioxopiperidin-3-yl)-1-oxo-N-((R)-2,2,2-trifluoro-1-(2-(trifluoromethyl)phenyl)ethyl)isoindoline-5-carboxamide]
